The record followed here is patent publication US7314877B2, “Benzofuran derivative” (Kowa Co., Ltd., priority 2003, dated 2008).

Data set [1] has as its system TNF-α production. Kind of data set: TNF-α production inhibitory effect in LPS-stimulated RAW264.7 cells (ELISA). Type of data set: cell-based. Conditions: Mus musculus, 8 h, lipopolysaccharide 1 μg/mL, eight hours incubation, TNF-α in culture supernatant by ELISA. As to the method: Method for Determining TNF-α Production Inhibitory Effect
RAW264.7 cells were suspended in a DMEM medium supplemented with 10% fetal bovine serum (FBS), and the suspension was seeded in wells of a 24-well plate (5×10^5/mL/well). Each test compound (0 to 10 μM) was added to the wells, and the mixture was incubated in a CO2 incubator for 30 minutes. Subsequently, lipopolysaccharide was added to the mixture in an amount of 1 μg/mL, and incubation was further performed in a CO2 incubator for eight hours. Eight hours after the start of incubation, the culture supernatant was collected, and the amount of TNF-α contained in the culture broth was determined through ELISA. IC50 value was determined through comparison with the amount of produced TNF-α in the drug-free (blank) case.
A general note: An ELISA detects its analyte on a solid surface through an enzyme-linked reagent.

Data set [2] can be described thus: Test on absorption after oral administration in mouse. Type of data set: in vivo. Conditions: male ICR mouse, 10 mg/kg oral, suspension in 0.5% HPMC, plasma at 0.25, 0.5, 1 and 4 hours, HPLC; FIG. 1. As to the method:
Test on Absorption after Oral Administration in Mouse Each of the test compounds (Examples 7, 10, and 13) was suspended in 0.5% HPMC in a mortar. The suspension was orally administered to each male ICR mouse (6 weeks old) in an amount of 10 mg/kg. At each time of 0.25, 0.5, 1, and 4 hours after oral administration, a blood sample was collected and centrifuged, whereby a plasma sample was prepared. The level of the test compound in the plasma sample was determined through HPLC.

pIC50: −log10 of the molar value.

As a reminder, the melting point is the temperature, or range, at which the solid turns liquid. Usually pIC50 stands for the negative decadic logarithm of the IC50, by convention in mol/L. In turn, `CN1CCN(Cc2cc(-c3ccc4c(c3)CCO4)nn(CC3CC3)c2=O)CC1` [Example 1, 2-cyclopropylmethyl-6-(2,3-dihydro-1-benzofuran-5-yl)-4-(4-methyl-1-piperazinyl)methyl-2H-pyridazin-3-one] displayed a melting point of 128 to 130 °C. In data set [1], this compound gave a pIC50 of 5.05.

For the compound `CN(C)Cc1cc(-c2ccc3c(c2)CCO3)nn(CC2CC2)c1=O` [Example 3, 2-cyclopropylmethyl-6-(2,3-dihydro-1-benzofuran-5-yl)-4-dimethylaminomethyl-2H-pyridazin-3-one], the melting point lay in the range of 109 to 110 °C.

In turn, `CN1CCN(Cc2cc(-c3ccc4c(c3)CCO4)nn(Cc3ccc(F)cc3)c2=O)CC1` [Example 6, 2-(4-fluorobenzyl)-6-(2,3-dihydro-1-benzofuran-5-yl)-4-(4-methyl-1-piperazinyl)methyl-2H-pyridazin-3-one] gave a melting point of 179 to 180 °C. The compound also had a negative-log IC50 (pIC50) in data set [1] of 5.51.

Turning to `CN1CCN(Cc2cc(-c3ccc4c(c3)CCO4)nn(Cc3ccc(F)cc3)c2=O)CC1.Cl.Cl` [Example 7, 2-(4-fluorobenzyl)-6-(2,3-dihydro-1-benzofuran-5-yl)-4-(4-methyl-1-piperazinyl)methyl-2H-pyridazin-3-one dihydrochloride], the melting point is 201 to 204 °C (dec.). Moreover, the “absorption after oral administration (level of test compound in plasma)” value (from here on “absorption after oral administration”) in data set [2] is given as “good absorbability”.

Compound `CN1CCN(Cc2cc(-c3ccc4c(c3)CCO4)nn(Cc3ccc(Cl)cc3)c2=O)CC1` [Example 8, 2-(4-chlorobenzyl)-6-(2,3-dihydro-1-benzofuran-5-yl)-4-(4-methyl-1-piperazinyl)methyl-2H-pyridazin-3-one] showed a melting point of 149 to 150 °C.

With `CN1CCN(Cc2cc(-c3ccc4c(c3)CCO4)nn(CC=Cc3ccc(Cl)cc3)c2=O)CC1` [Example 9, 2-(4-chlorocinnamyl)-6-(2,3-dihydro-1-benzofuran-5-yl)-4-(4-methyl-1-piperazinyl)methyl-2H-pyridazin-3-one], the melting point was in the range of 112 to 113 °C. In data set [1], the negative-log IC50 (pIC50) was 5.38.

As for `CN1CCN(Cc2cc(-c3ccc4c(c3)CCO4)nn(CC=Cc3ccc(Cl)cc3)c2=O)CC1.Cl.Cl` [Example 10, 2-(4-chlorocinnamyl)-6-(2,3-dihydro-1-benzofuran-5-yl)-4-(4-methyl-1-piperazinyl)methyl-2H-pyridazin-3-one dihydrochloride], the “absorption after oral administration” value in data set [2] was “good absorbability”.

`CN1CCN(Cc2cc(-c3ccc4occc4c3)nn(Cc3ccc(F)cc3)c2=O)CC1` [Example 11, 6-(1-benzofuran-5-yl)-2-(4-fluorobenzyl)-4-(4-methyl-1-piperazinyl)methyl-2H-pyridazin-3-one] returned a melting point of 128 to 130 °C.

For `CN1CCN(Cc2cc(-c3ccc4c(c3)CCO4)nn(CCCc3ccccc3Cl)c2=O)CC1` [Example 12, 2-[3-(2-chlorophenyl)propyl]-6-(2,3-dihydro-1-benzofuran-5-yl)-4-(4-methyl-1-piperazinyl)methyl-2H-pyridazin-3-one], the pIC50 in data set [1] is 5.66.

As to `CN1CCN(Cc2cc(-c3ccc4c(c3)CCO4)nn(CCCc3ccccc3Cl)c2=O)CC1.Cl.Cl` [Example 13, 2-[3-(2-chlorophenyl)propyl]-6-(2,3-dihydro-1-benzofuran-5-yl)-4-(4-methyl-1-piperazinyl)methyl-2H-pyridazin-3-one dihydrochloride], in data set [2], the “absorption after oral administration” value is recorded as “good absorbability”.

Regarding `CN1CCN(Cc2cc(-c3ccc4c(c3)CCO4)nn(Cc3ccccc3Cl)c2=O)CC1` [Example 17, 2-(2-chlorobenzyl)-6-(2,3-dihydro-1-benzofuran-5-yl)-4-(4-methyl-1-piperazinyl)methyl-2H-pyridazin-3-one], the melting point was in the range of 141.4 to 142.1 °C. This compound also showed a pIC50 in data set [1] of 5.12.

For the compound `NCc1cc(-c2ccc3c(c2)CCO3)nn(Cc2ccccc2Cl)c1=O` [Example 18, 4-aminomethyl-2-(2-chlorobenzyl)-6-(2,3-dihydro-1-benzofuran-5-yl)-2H-pyridazin-3-one], the melting point is 120.1 to 122.8 °C. The compound also had a pIC50 in data set [1] of 5.12.
